Consider 24 compounds from patent US20130165464A1, “HETEROARYLS AND USES THEREOF” (MILLENNIUM PHARMACEUTICALS, INC., priority 2011, published 2013).

Bounds are passed on as bounds.

The target in this assay is T1, VPS34 (Homo sapiens, UniProt Q8NEB9).
T1 construct: GST (N); host or cells: SF9 insect cells (baculovirus)
Description: Human VPS34 enzyme assay (Adapta TR-FRET). It counts as biochemical. To be noted: for inhibition at 1.11 µM: 1 h, at a 1.11 μM concentration, read-out: VPS34 Percent Inhibition. Here is the method:
VPS34 (accession number GB:BCO33004) was cloned into pDEST20-Thombin as N-terminal GST tagged fusion proteins using the Gateway system (Invitrogen, catalog#11804-013). The sequences were verified before recombinant protein expression using the Baculovirus Expression System with Gateway® Technology.
For expression VPS34 was infected at 1MOI in SF9 cells and harvested 72 hours post infection.
For purification, VPS34 is purified by Glutathione Sepharose 4 Fast Flow (GE Healthcare #17-5132-03) followed by HiTrap Q (GE Healthcare #17-1153-01).
Human VPS34 Enzyme Assay Method
100 nL compounds in DMSO are added to wells of a 384 well microtitre plate (Greiner 780076). At room temperature: 5 ul VPS34 reaction buffer (Invitrogen Assay Buffer Q (diluted 1 in 5 with nanopure water) plus 2 mM DTT and 2 mM MnCl2) containing ATP (20 uM, Promega) and 200 uM PI-PS substrate (Invitrogen PV5122) is added followed immediately by 5 ul VPS34 reaction buffer (as above) containing VPS34 (5 nM, Millennium Protein Sciences Group) and the mixture is incubated with shaking at room temperature for 1 hour. Then 5 ul VPS34 stop-detect mix (as per Invitrogen Adapta Assay kit (PV5009) instructions (contains kinase quench buffer, TR-FRET buffer, Adapta Eu anti-ADP antibody and Alexa Fluor 647 ADP tracer)) is added to quench the reaction. The plates are then incubated for 30 minutes at room temperature with shaking and then read on a BMG PheraStar Plus reader.
For the assay methods described above, test compound percent inhibition, at various concentrations, is calculated relative to control (DMSO and EDTA) treated samples. Compound concentration versus percent inhibition curves are fitted to generate IC50 values. One skilled in the art will appreciate that the values generated either as percentage inhibition at a single concentration or IC50 values are subject to experimental variation.
For orientation: In TR-FRET formats the signal depends on donor and acceptor labels being close together.

T1 sequence (Q8NEB9 whole entry): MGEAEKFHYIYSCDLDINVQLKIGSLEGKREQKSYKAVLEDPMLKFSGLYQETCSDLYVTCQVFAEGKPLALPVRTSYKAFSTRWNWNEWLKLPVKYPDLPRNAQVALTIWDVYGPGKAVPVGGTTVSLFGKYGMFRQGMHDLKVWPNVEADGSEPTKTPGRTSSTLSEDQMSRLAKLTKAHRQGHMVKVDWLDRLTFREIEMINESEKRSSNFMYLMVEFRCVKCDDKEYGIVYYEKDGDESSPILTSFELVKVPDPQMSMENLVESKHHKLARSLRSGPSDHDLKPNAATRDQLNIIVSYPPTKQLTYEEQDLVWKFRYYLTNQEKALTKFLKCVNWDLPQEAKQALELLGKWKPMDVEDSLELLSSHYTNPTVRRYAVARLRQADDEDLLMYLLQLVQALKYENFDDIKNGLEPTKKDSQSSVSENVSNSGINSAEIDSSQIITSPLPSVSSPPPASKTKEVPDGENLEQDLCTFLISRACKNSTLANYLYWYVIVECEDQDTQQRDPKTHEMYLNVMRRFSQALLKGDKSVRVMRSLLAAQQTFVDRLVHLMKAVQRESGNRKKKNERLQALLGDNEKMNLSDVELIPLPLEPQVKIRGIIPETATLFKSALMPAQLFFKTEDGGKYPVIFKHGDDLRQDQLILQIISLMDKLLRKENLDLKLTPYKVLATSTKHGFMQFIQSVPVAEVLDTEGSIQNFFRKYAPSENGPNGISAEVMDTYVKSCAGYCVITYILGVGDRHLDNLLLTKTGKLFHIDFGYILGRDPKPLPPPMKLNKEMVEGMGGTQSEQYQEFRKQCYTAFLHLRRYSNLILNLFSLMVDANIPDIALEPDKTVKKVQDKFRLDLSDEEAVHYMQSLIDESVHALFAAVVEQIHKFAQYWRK

As to `CC(=O)Nc1cc(-n2cc(-c3ccccc3Cl)c(-c3nnc[nH]3)n2)ccn1` [I-1, N-{4-[4-(2-chlorophenyl)-3-(1H-1,2,4-triazol-3-yl)-1H-pyrazol-1-yl]pyridin-2-yl}acetamide], the IC50 (in general, the concentration that gives 50% inhibition) is 150 to 1000 nM and the inhibition (in general, the percentage by which the read-out fell short of the control) at 1.11 µM stood at 98%.
Take `CC(=O)Nc1cc(-n2cc(C(N)=O)c(-c3ccccc3Cl)c2)ccn1` [I-2, 1-(2-acetamidopyridin-4-yl)-4-(2-chlorophenyl)-1H-pyrrole-3-carboxamide]: the IC50 was below 50 nM and the inhibition at 1.11 µM is above 99%.
For `CC(=O)Nc1cc(-n2nc(-c3ccccc3Cl)c(-c3nc[nH]n3)c2Br)c(Br)cn1` [I-4, N-{5-bromo-4-[5-bromo-3-(2-chlorophenyl)-4-(1H-1,2,4-triazol-3-yl)-1H-pyrazol-1-yl]pyridin-2-yl}acetamide] the same measures were 1000 to 5000 nM and 18%.
Taken in the same sequence, the figures for `CC(=O)Nc1cc(-n2cc(-c3nc[nH]n3)c(-c3ccccc3Cl)n2)c(C)cn1` [I-5, N-{4-[3-(2-chlorophenyl)-4-(1H-1,2,4-triazol-3-yl)-1H-pyrazol-1-yl]-5-methylpyridin-2-yl}acetamide] were below 50 nM and above 99%.
For `CC(=O)Nc1cc(-n2cc(C(=O)O)c(-c3ccccc3Cl)n2)c(C)cn1` [I-6, 1-(2-acetamido-5-methylpyridin-4-yl)-3-(2-chlorophenyl)-1H-pyrazole-4-carboxylic acid] the same measures were 150 to 1000 nM and 97%.
On to `NC(=O)c1cn(-c2ccnc3[nH]ccc23)nc1-c1ccccc1Cl` [I-7, 3-(2-chlorophenyl)-1-(1H-pyrrolo[2,3-b]pyridin-4-yl)-1H-pyrazole-4-carboxamide], for which the IC50 was in the range of 150 to 1000 nM and the inhibition at 1.11 µM came out at 88%.
Regarding `CC(=O)Nc1cc(-n2cc(C(N)=O)c(-c3ccccc3Cl)n2)ccn1` [I-8, 1-(2-acetamidopyridin-4-yl)-3-(2-chlorophenyl)-1H-pyrazole-4-carboxamide], the inhibition at 1.11 µM is above 99%.
Turning to `CC(=O)Nc1cc(-n2cc(C(N)=O)c(-c3ccccc3Cl)n2)c(Cl)cn1` [I-9, 1-(2-acetamido-5-chloropyridin-4-yl)-3-(2-chlorophenyl)-1H-pyrazole-4-carboxamide], the IC50 was 150 to 1000 nM and the inhibition at 1.11 µM was above 99%.
Taken in the same sequence, the figures for `CC(=O)Nc1cc(-n2cc(C(N)=O)c(-c3ccccc3Cl)n2)c(C)cn1` [I-11, 1-(2-acetamido-5-methylpyridin-4-yl)-3-(2-chlorophenyl)-1H-pyrazole-4-carboxamide] were 150 to 1000 nM and 96%.
Taken in the same sequence, the figures for `CC(=O)Nc1cc(-n2cc(-c3nc[nH]n3)c(-c3ccccc3Cl)n2)ccn1` [I-12, N-{4-[3-(2-chlorophenyl)-4-(1H-1,2,4-triazol-3-yl)-1H-pyrazol-1-yl]pyridin-2-yl}acetamide] were below 50 nM and above 99%.
As to `CC(=O)Nc1cc(-n2cc(C(N)=O)c(-c3ccc(Cl)cc3Cl)n2)ccn1` [I-13, 1-(2-acetamidopyridin-4-yl)-3-(2,4-dichlorophenyl)-1H-pyrazole-4-carboxamide], the inhibition at 1.11 µM is above 99%.
Regarding `COC(=O)Nc1cc(-n2cc(-c3nc[nH]n3)c(-c3ccccc3Cl)n2)ccn1` [I-17, methyl {4-[3-(2-chlorophenyl)-4-(1H-1,2,4-triazol-3-yl)-1H-pyrazol-1-yl]pyridin-2-yl}carbamate], the IC50 was below 50 nM and the inhibition at 1.11 µM was above 99%.
Taken in the same sequence, the figures for `CC(=O)Nc1cc(-n2cc(-c3nc[nH]n3)c(-c3ccccc3Cl)n2)c(Br)cn1` [I-18, N-{5-bromo-4-[3-(2-chlorophenyl)-4-(1H-1,2,4-triazol-3-yl)-1H-pyrazol-1-yl]pyridin-2-yl}acetamide] were 150 to 1000 nM and 89%.
With `CC(=O)Nc1cc(-n2cc(-c3ccccc3Cl)c(C(N)=O)n2)ccn1` [I-20, 1-(2-acetamidopyridin-4-yl)-4-(2-chlorophenyl)-1H-pyrazole-3-carboxamide], the IC50 lay within 1000 to 5000 nM and the inhibition at 1.11 µM came out at 29%.
Turning to `CC(=O)Nc1cc(-n2cc(-c3nnc[nH]3)c(-c3ccccc3Cl)c2)ccn1` [I-22, N-{4-[3-(2-chlorophenyl)-4-(1H-1,2,4-triazol-3-yl)-1H-pyrrol-1-yl]pyridin-2-yl}acetamide], the IC50 is below 50 nM and the inhibition at 1.11 µM was above 99%.
For `O=C(Nc1cc(-n2cc(-c3nc[nH]n3)c(-c3ccccc3Cl)n2)ccn1)C1CC1` [I-23, N-{4-[3-(2-chlorophenyl)-4-(1H-1,2,4-triazol-3-yl)-1H-pyrazol-1-yl]pyridin-2-yl}cyclopropanecarboxamide] the same measures were below 50 nM and above 99%.
`CC(=O)Nc1cc(-n2cc(-c3ccn[nH]3)c(-c3ccccc3Cl)n2)ccn1` [I-25, N-{4-[3′-(2-chlorophenyl)-1H,1′H-3,4′-bipyrazol-1′-yl]pyridin-2-yl}acetamide]: the IC50 is below 50 nM and the inhibition at 1.11 µM was above 99%.
Taken in the same sequence, the figures for `Cc1cnc(NC(=O)C(C)C)cc1-n1cc(-c2nc[nH]n2)c(-c2ccccc2Cl)c1` [I-26, N-{4-[3-(2-chlorophenyl)-4-(1H-1,2,4-triazol-3-yl)-1H-pyrrol-1-yl]-5-methylpyridin-2-yl}-2-methylpropanamide] were 150 to 1000 nM and 78%.
Taken in the same sequence, the figures for `CC(=O)Nc1cc(-n2cc(-c3ncc[nH]3)c(-c3ccccc3Cl)n2)c(C)cn1` [I-27, N-{4-[3-(2-chlorophenyl)-4-(1H-imidazol-2-yl)-1H-pyrazol-1-yl]-5-methylpyridin-2-yl}acetamide] were below 50 nM and above 99%.
Taken in the same sequence, the figures for `CCC(=O)Nc1cc(-n2cc(C(N)=O)c(-c3ccccc3Cl)c2)c(C)cn1` [I-28, 4-(2-chlorophenyl)-1-[5-methyl-2-(propionylamino)pyridin-4-yl]-1H-pyrrole-3-carboxamide] were below 50 nM and above 99%.
As for `O=C(O)c1cn(-c2ccnc(NCCc3ccc(O)cc3)n2)nc1-c1ccccc1Cl` [I-29, 3-(2-chlorophenyl)-1-(2-{[2-(4-hydroxyphenyl)ethyl]amino}pyrimidin-4-yl)-1H-pyrazole-4-carboxylic acid], the IC50 was in the range of 1000 to 5000 nM and the inhibition at 1.11 µM came out at 44%.
For `O=C(O)c1cn(-c2ccnc(NCCc3ccccc3)n2)nc1-c1ccccc1Cl` [I-30, 3-(2-chlorophenyl)-1-{2-[(2-phenylethyl)amino]pyrimidin-4-yl}-1H-pyrazole-4-carboxylic acid] the same measures were 1000 to 5000 nM and 14%.
With `CC(=O)Nc1cc(-n2cc(-c3nc[nH]n3)c(-c3ccccc3Cl)c2)c(C)cn1` [I-31, N-{4-[3-(2-chlorophenyl)-4-(1H-1,2,4-triazol-3-yl)-1H-pyrrol-1-yl]-5-methylpyridin-2-yl}acetamide], the IC50 was below 50 nM and the inhibition at 1.11 µM is above 99%.
Consider `CC(=O)Nc1cc(-n2cc(-c3ncc[nH]3)c(-c3ccccc3Cl)n2)ccn1` [I-32, N-{4-[3-(2-chlorophenyl)-4-(1H-imidazol-2-yl)-1H-pyrazol-1-yl]pyridin-2-yl}acetamide], for which the half-inhibitory concentration (IC50) was below 50 nM and the inhibition at 1.11 µM was above 99%.
